Test system: C. formosanus
Experiment: Preliminary laboratory dose-range test of colored bait matrix
Assay type: in vivo, Coptotermes formosanus
Experimental: (3) Incorporation of Nutrients. The dry colored alpha cellulose was then mixed with the nutritive liquid (described in U.S. Pat. No. 6,585,991 which is incorporated by reference in its entirety). The nutritive liquid was prepared by weighing 1.25 g lecithin (USB #18240), 0.450 g ergosterol (Sigma #E-6510), 3.75 g ethyl alcohol (Quantum MT #194A31), and 650 g drinking water (Barbe's dairy, West Wego, La.) into a 1 L glass bottle and mixing well using a glass bar. The opening of the bottle was covered with a foam stopper, the bottle cap was loosely placed on top of the stopper, and the stopper covered with foil. After autoclaving for 20 min at 120° C., the bottle was closed tightly and allowed to cool down. Under a laminar flow hood, yeast hydrolysate (ICN Biomed. #103304) was added to the lecithin-containing mixture using a sterile spatula and the mixture was shaken until the yeast hydrolysate was incorporated. The bottle was tightly closed. Using a sterile spatula, 667 ml lecithin-yeast hydrolysate-containing mixture was added to 333 g colored cellulose (at each of the calco oil blue V concentrations) and mixed well. The beaker was covered with foil and plastic to avoid contamination and loss of water. This mixture was stored at 5° C. up to 8 months or at room temperature for at least a month. The mixture was compacted and divided into pieces of about 25-50 g each at colorant concentrations of 50, 100, 225, 250, 500, and 750 ppm respectively. Chitin synthesis inhibitors such as Diflubenzuron (Ensystex) at a given concentration of 50, 100, 175, 200, and 250 ppm were individually weighed, dissolved in minimal amount of acetone (J. T. Baker #9010-03) in a 50 ml plastic tube, and added to the sterile liquid solution.
A concentration of 225 ppm Calco oil blue was effective as bait active ingredient taking a mean time to kill C. formosanus of 2.0 months under laboratory conditions.

Compound: CCCCC(CC)CNc1ccc(NCC(CC)CCCC)c2c1C(=O)c1ccccc1C2=O (stereo not drawn) [Calco oil blue V, 9,10-anthracenedione, 1,4-bis[(2-ethylhexyl)amino]]
- mean time to kill C. formosanus (225 ppm Calco oil blue, laboratory conditions): 2.0 months
- repellence to the termites (225 ppm blue colorant in combination with a chitin synthesis inhibitor (50-175 ppm)): without any signs of repellence
- time to induce FS termite mortality (225 ppm blue colorant in combination with a chitin synthesis inhibitor (50-175 ppm), preliminary results): ≤ 2 months
- repellence to the termites (colorant doses higher than 500 ppm): Some repellence was observed
- Bait consumption (concentrations greater than 500 and up to 1000 ppm): bait consumption was reduced
- mean killing times (concentrations greater than 500 and up to 1000 ppm, compared with 225 ppm): not significantly different
